Experimental data from patent US8188069B2, “Azepine derivatives as gamma-secretase inhibitors” (Eli Lilly and Company, priority 2007, dated 2012).

Key:
Hippocampal Total A-beta = experiment: In vivo suppression of β-amyloid, brain assay (hippocampal total A-beta ELISA); conditions: young heterozygous PDAPP mice, sacrifice 3 hours post-administration
Protocol: (§1) This example illustrates how the compounds of this invention could be tested for in vivo suppression of β-amyloid release and/or synthesis. For these experiments, 3 to 4 month old PDAPP mice are used [Games et al., (1995) Nature 373:523-527]. Depending upon which compound is being tested, the compound is usually formulated at between 1 and 10 mg/mL. Because of the low solubility factors of the compounds, they may be formulated with various vehicles, such as corn oil; 10% ethanol in corn oil; 2-hydroxypropyl-β-cyclodextrin (Research Biochemicals International, Natick, Mass.); and carboxy-methyl-cellulose (Sigma Chemical Co., St. Louis, Mo.).
For acute efficacy studies, PDAPP mice are dosed orally by gavage and 3 hours later the animals are euthanized via CO2 narcosis. For sub-chronic studies, PDAPP mice are dosed once-a-day or twice-a-day for 7 days, and sacrificed 3 hours after the last dose. Blood is taken by cardiac puncture using a 1 cc 25G ⅝″ tuberculin syringe/needle coated with solution of 0.5 M EDTA, pH 8.0. The blood is placed in a Becton-Dickinson vacutainer tube containing EDTA and spun down for 15 minutes at 1500×g at 5° C. The brains of the mice are then removed and the cortex and hippocampus are dissected out, placed in labeled eppendorf tubes and rapidly frozen on dry ice.
To prepare hippocampal and cortical tissue for enzyme-linked immunosorbent assays (ELISAs) each brain region is homogenized in 10 volumes of ice cold guanidine buffer (5.0 M guanidine-HCl, 50 mM Tris-HCl, pH 8.0) using a Polytron. The homogenates are gently rocked on a rotating platform for three to four hours at room temperature and stored at −20° C. prior to quantitation of β-amyloid.
The brain homogenates are diluted 1:10 with ice-cold casein buffer [0.25% casein, phosphate buffered saline (PBS), 0.05% sodium azide, 20 μg/ml aprotinin, 5 mM EDTA, pH 8.0, 10 μg/ml leupeptin], thereby reducing the final concentration of guanidine to 0.5 M, before centrifugation at 16,000×g for 20 minutes at 4° C. Samples are further diluted, if necessary, to achieve an optimal range for the ELISA measurements by the addition of casein buffer with 0.5 M guanidine hydrochloride added. The β-amyloid standards (1-40 or 1-42 amino acids) are prepared such that the final composition equaled 0.5 M guanidine in the presence of 0.1% bovine serum albumin (BSA).
The Total β-amyloid 1-x sandwich ELISA, quantitating essentially all species of β-amyloid (including β-amyloid 1-40 and β-amyloid 1-42), employs two monoclonal antibodies (mAb) to β-amyloid. The capture antibody, 266 [P. Seubert, Nature (1992) 359:325-327], is specific to amino acids 13-28 of β-amyloid. The antibody 3D6 [Johnson-Wood et al., PNAS USA (1997) 94:1550-1555], which is specific to amino acids 1-5 of β-amyloid, is biotinylated and served as the reporter antibody in the assay. The 3D6 biotinylation procedure employs the manufacturer's (Pierce, Rockford, Ill.) protocol for NHS-biotin labeling of immunoglobulins except that 100 mM sodium bicarbonate, pH 8.5 buffer is used.
The 266 and 21F12 capture mAbs are coated at 10 μg into 96-well immunoassay plates (Costar, Cambridge, Mass.) overnight at room temperature. The plates are then aspirated and blocked with 0.25% human serum albumin in PBS buffer for at least 1 hour at room temperature, then stored desiccated at 4° C. until use. The plates are rehydrated with wash buffer (Tris-buffered saline, 0.05% Tween 20) prior to use. […]

[1] = tested on: β-amyloid peptide production in 293 751 SWE cells (HEK293 transfected with APP751 Swedish mutation); experiment: In vitro inhibition of β-amyloid production (ELISA, 293 751 SWE cells); format: cell-based, human; conditions: two hour incubation, n = 3
Protocol: This screening assay employed cells (HEK293=human kidney cell line) which were stably transfected with the gene for amyloid precursor protein 751 (APP751) containing the double mutation Lys651Met652 to Asn651Leu652 (APP751 numbering) in the manner described in International Patent Application Publication No. 94/10569. This mutation is commonly called the Swedish mutation and the cells, designated as “293 751 SWE”, were plated in Corning 96-well plates at 2-4×10^4 cells per well in Dulbecco's minimal essential media (Sigma, St. Louis, Mo.) plus 10% fetal bovine serum. Cell number is important in order to achieve β-amyloid ELISA results within the linear range of the assay (˜0.03 to 1.0 ng per mL).
Following overnight incubation at 37° C. in an incubator equilibrated with 5% carbon dioxide, media are removed and replaced with a stock solution of test compound (200 μL per well) for a two hour incubation period.
At the end of the incubation period, 100 μL from each well, of conditioned media or appropriate dilutions thereof are transferred into an ELISA plate pre-coated with antibody 266 [P. Seubert, Nature (1992) 359:325-327] against amino acids 13-28 of β-amyloid peptide as described in International Patent Application Publication No. 94/10569 and stored at 4° C. overnight. An ELISA assay employing labeled antibody 3D6 [P. Seubert, Nature (1992) 359:325-327] against amino acids 1-5 of β-amyloid peptide is run the next day to measure the amount of β-amyloid peptide produced. The results of the β-amyloid peptide ELISA are fit to a standard curve and expressed as ng/mL β-amyloid peptide and the concentration of test compounds producing 50% inhibition (IC50) of β-amyloid peptide production are estimated using a four parameter logistic model within Graph Pad Prism (San Diego, Calif.).

plasma A-beta = experiment: In vivo suppression of β-amyloid, blood assay (plasma total β-amyloid ELISA); parameters: species or system PDAPP mice; conditions: 3 mg/kg b.i.d. for 7 days; p<0.001 relative to vehicle control
Protocol: as §1
For acute efficacy studies, PDAPP mice are dosed orally by gavage and 3 hours later the animals are euthanized via CO2 narcosis. For sub-chronic studies, PDAPP mice are dosed once-a-day or twice-a-day for 7 days, and sacrificed 3 hours after the last dose. […]
The Total β-amyloid 1-x sandwich ELISA, quantitating essentially all species of β-amyloid (including β-amyloid 1-40 and β-amyloid 1-42), employs two monoclonal antibodies (mAb) to β-amyloid. […]
The 266 and 21F12 capture mAbs are coated at 10 μg into 96-well immunoassay plates (Costar, Cambridge, Mass.) overnight at room temperature. […] Reaction product is quantified using a Molecular Devices Vmax (Molecular Devices, Menlo Park, Calif.) measuring the difference in absorbance at 450 nm and 650 nm. […]

## CC(C)[C@H](O)C(=O)N[C@@H](C)C(=O)N[C@H]1C=C(c2ccccc2)C=CN(C)C1=O (single isomer, unassigned) [1 (diasteromer 2)]
Hippocampal Total A-beta; 0.1 mg/kg oral, n = 1 experiment
  Hippocampal Total A-beta % REDUCTION: 18%
Hippocampal Total A-beta; 0.3 mg/kg oral, mean ± SD, n = 2 experiments
  Hippocampal Total A-beta % REDUCTION: 31 ± 13%
Hippocampal Total A-beta; 1 mg/kg oral, mean ± SD, n = 3 experiments
  Hippocampal Total A-beta % REDUCTION: 48 ± 11%
Hippocampal Total A-beta; 3 mg/kg oral, mean ± SD, n = 5 experiments
  Hippocampal Total A-beta % REDUCTION: 59 ± 5%
Hippocampal Total A-beta; 10 mg/kg oral, n = 1 experiment
  Hippocampal Total A-beta % REDUCTION: 69%
[1]; Homo sapiens, HEK293, 2 h
  IC50: 5 ± 0.7 nM
Plasma A-beta
  reduction of plasma A-beta: 54%

## CC(C)[C@H](F)C(=O)N[C@@H](C)C(=O)NC1C=C(c2ccccc2)C=CN(C)C1=O (single isomer, unassigned) [2 (diastereomer 1)]
[1]
  IC50: 3330 ± 430 nM

## CC(C)C1=CC(NC(=O)[C@H](C)NC(=O)[C@@H](O)C(C)C)C(=O)N(C)C=C1 (single isomer, unassigned) [3 (diastereomer 2)]
[1]
  IC50: 36 ± 1 nM

## CC(C)[C@H](F)C(=O)N[C@@H](C)C(=O)NC1C=C(c2ccccc2)C=CN(C)C1=O (single isomer, unassigned) [2 (diastereomer 2)]
[1]
  IC50: 8 ± 0.8 nM

## CC(C)C1=CC(NC(=O)[C@H](C)NC(=O)[C@@H](O)C(C)C)C(=O)N(C)C=C1 (single isomer, unassigned) [3 (diastereomer 1)]
[1]
  IC50: 10700 ± 1800 nM
